Experiments:
[1] = molecular target: T1, GABAA/α6 (α6β3γ2 GABAA receptor) (Homo sapiens, UniProt P18507+Q16445); experiment: competitive binding assay with [3H]flunitrazepam; conditions: Table 3; read-out: Binding Affinity at GABAA/α6
T1 construct: expressed in transfected cells
Experimental: (§1) Membranes were harvested with a Brandel cell harvester followed by three ice-cold washes onto polyethyleneimine-pretreated (0.3%) Whatman GF/C filters. Filters were dried overnight and then soaked in Ecoscint, a liquid scintillation cocktail (National Diagnostics; Atlanta, Ga.). Bound radioactivity was quantified by liquid scintillation counting. Membrane protein concentrations were determined using an assay kit from Bio-Rad (Hercules, Calif.) with bovine serum albumin as the standard.
as §1, with “The GABAA subunit selectivity of several compounds prepared as described above were determined using competitive binding assays. […] Membranes” for “Membranes”

[2] = molecular target: T2, GABAA/α5 (α5β3γ2 GABAA receptor) (Homo sapiens, UniProt P18507+P31644); experiment: competitive binding assay with [3H]flunitrazepam; conditions: Table 3; read-out: Binding Affinity at GABAA/α5
T2 construct: expressed in transfected cells
Experimental: as §1
as §1, with “The GABAA subunit selectivity of several compounds prepared as described above were determined using competitive binding assays. […] Membranes” for “Membranes”

[3] = molecular target: T3, GABAA/α2 (α2β3γ2 GABAA receptor) (Homo sapiens, UniProt P18507+P47869); experiment: competitive binding assay with [3H]flunitrazepam; conditions: Table 3; read-out: Binding Affinity at GABAA/α2
T3 construct: expressed in transfected cells
Experimental: as §1
as §1, with “The GABAA subunit selectivity of several compounds prepared as described above were determined using competitive binding assays. […] Membranes” for “Membranes”

[4] = molecular target: T4, GABAA/α1 (α1β3γ2 GABAA receptor) (Homo sapiens, UniProt P14867+P18507); experiment: competitive binding assay with [3H]flunitrazepam; conditions: Table 3; read-out: Binding Affinity at GABAA/α1
T4 construct: expressed in transfected cells
Experimental: as §1
as §1, with “The GABAA subunit selectivity of several compounds prepared as described above were determined using competitive binding assays. […] Membranes” for “Membranes”

[5] = molecular target: T5, GABAA/α3 (α3β3γ2 GABAA receptor) (Homo sapiens, UniProt P18507+P34903); experiment: competitive binding assay with [3H]flunitrazepam; conditions: Table 3; read-out: Binding Affinity at GABAA/α3
T5 construct: expressed in transfected cells
Experimental: as §1
as §1, with “The GABAA subunit selectivity of several compounds prepared as described above were determined using competitive binding assays. […] Membranes” for “Membranes”

[6] = molecular target: T6, GABAA/α4 (α4β3γ2 GABAA receptor) (Homo sapiens, UniProt P18507+P48169); experiment: competitive binding assay with [3H]flunitrazepam; conditions: Table 3; read-out: Binding Affinity at GABAA/α4
T6 construct: expressed in transfected cells
Experimental: as §1
as §1, with “The GABAA subunit selectivity of several compounds prepared as described above were determined using competitive binding assays. […] Membranes” for “Membranes”

[7] = system: seizures; conditions: rats, even orally; cited from earlier work

SMILES	Ki [1] [nM]	Ki [2] [nM]	Ki [3] [nM]	Ki [4] [nM]	Ki [5] [nM]	Ki [6] [nM]	anticonvulsant activity of the sole metabolite [7]
C#Cc1ccc2c(c1)C(c1ccccc1)=NCC(=O)N2C [QB-II-066, 1-Methyl-7-acetyleno-5-phenyl-1,3-dihydro-benzo[e]-1,4-diazepin-2-one]	> 1000	6.8	42.1	76.3	47.4	> 1000	–
C#Cc1ccc2c(c1)C(c1ccccn1)=NCc1c(C(=O)O)ncn1-2 [HZ-166 acid]	–	–	–	–	–	–	anticonvulsant
